Reference: patent US20220323406A1, “METHODS AND COMPOSITIONS FOR DIFFERENTIATING STEM CELLS” (Massachusetts Institute of Technology, priority 2019, published 2022)

Assays:
[1] = system: ENR+CD organoids (ISC to Paneth cell differentiation); assay: Secondary (validation) screen: LYZ.S CCh-stimulated lysozyme secretion, 2.5-D 384-well ENR+CD organoids; assay type: cell-based, mouse; details: 6-day ENR+CD, vs ENR+CD+DMSO
Experimental: (§1) Drugs were tested at a narrowed dose range around each treatment's identified optimal dose from the primary screen (4× below, 2× above and below).
(§2) High-throughput screening.
(§3) Secondary lysozyme secretion assay screen. Confirmatory secondary screening with primary hits was performed using the above 384-well plate method. The screen was conducted with 4-plate replicates with a base media of ENR+CD. Media was supplemented with compound at day 0 and day 3 (n=8 well replicates per dose) at four different doses: two-fold above, two-fold below, and four-fold below the optimal final dose for each respective treatment. Additionally, each plate carried a large number of ENR+DMSO or ENR+CD+DMSO (vehicle) control wells (n=100 for ATP, and n=25 for LYZ.NS and LYZ.S) for robust normalization. ATP, non-stimulated lysozyme activity and CCh-stimulated lysozyme activity was again measured and the collected data was again processed in a custom R-script, per primary screen with slight modification. Values were log10 transformed, and a plate-wise FC was calculated for each well based on the median value of ENR+CD+DMSO (vehicle) control wells to normalize plate to plate variability.

ENR+CD organoids [2] = assay: Secondary (validation) screen: ATP (CTG) assay, 2.5-D 384-well ENR+CD organoids; assay type: cell-based, mouse; details: 6-day ENR+CD, vs ENR+CD+DMSO
Experimental: as §1, §2, §3

[3] = system: ENR+CD organoids (ISC to Paneth cell differentiation); assay: Primary screen: basal (non-stimulated) lysozyme secretion LYZ.NS, 2.5-D 384-well ENR+CD organoid differentiation; assay type: cell-based, mouse; details: primary screen; for Z.LYZ.NS: standard z score
Description: as §2

[4] = system: ENR+CD organoids (ISC to Paneth cell differentiation); assay: Secondary (validation) screen: LYZ.NS basal lysozyme secretion, 2.5-D 384-well ENR+CD organoids; assay type: cell-based, mouse; details: for Dose.FC.LYZ.NS / Z.LYZ.NS / repSSMD.LYZ.NS: 6-day ENR+CD, vs ENR+CD+DMSO
Experimental: as §1, §2, §3

ENR+CD organoids [5] = assay: Primary screen: ATP (CellTiter-Glo 3D, CTG) cell number/viability, 2.5-D 384-well ENR+CD organoids; details: primary screen; for Z.CTG: standard z score;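 on all read-outs here: compounds given at plating and again on day 3 over a 6-day differentiation from ENR+CV stem-cell-enriched precursors, ATP measured on day 6, plate median as control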
[6] = system: ENR+CD organoids (ISC to Paneth cell differentiation); assay: Primary screen: CCh-stimulated lysozyme secretion LYZ.S, 2.5-D 384-well ENR+CD organoid differentiation; assay type: cell-based, mouse; details: primary screen
Description: as §2

[7] = dose 0.08 uM, FC vs plate median
[8] = dose 0.40 uM, FC vs plate median
[9] = dose 2.00 uM, FC vs plate median
[10] = dose 10.00 uM, FC vs plate median

COc1cc(Nc2c(C#N)cnc3cc(OCCCN4CCN(C)CC4)c(OC)cc23)c(Cl)cc1Cl [Bosutinib (SKI-606), Bosutinib, reference compound]
Dose.FC.LYZ.S ([1]; 0.02 uM): 0.103 log2 fold change
Dose.FC.LYZ.S ([1]; 0.04 uM): −0.086 log2 fold change
Dose.FC.LYZ.S ([1]; 0.08 uM): −0.072 log2 fold change
Dose.FC.LYZ.S ([1]; […]): 0.007 log2 fold change
Dose.FC.CTG (ENR+CD organoids [2]; 0.02 uM): 0.216 log2 fold change
Dose.FC.CTG (ENR+CD organoids [2]; 0.04 uM): 0.139 log2 fold change
Dose.FC.CTG (ENR+CD organoids [2]; 0.08 uM): 0.082 log2 fold change
Dose.FC.CTG (ENR+CD organoids [2]; […]): 0.128 log2 fold change
Dose.FC.LYZ.NS ([3]; dose 0.08 uM): 0.213 log2 fold change
Z.LYZ.NS (standard z score) ([3]; dose 0.08 uM): 1.858
Dose.FC.LYZ.NS ([3]; dose 0.40 uM): 0.130 log2 fold change
Z.LYZ.NS (standard z score) ([3]; dose 0.40 uM): 1.129
Dose.FC.LYZ.NS ([3]; dose 2.00 uM): −0.049 log2 fold change
Z.LYZ.NS (standard z score) ([3]; dose 2.00 uM): −0.425
Dose.FC.LYZ.NS ([3]; dose 10.00 uM): −0.115 log2 fold change
Z.LYZ.NS (standard z score) ([3]; dose 10.00 uM): −1.005
Dose.FC.LYZ.NS ([4]; 0.02 uM): 0.133 log2 fold change
Dose.FC.LYZ.NS ([4]; 0.04 uM): −0.067 log2 fold change
Dose.FC.LYZ.NS ([4]; 0.08 uM): −0.070 log2 fold change
Dose.FC.LYZ.NS ([4]; […]): 0.068 log2 fold change
Dose.FC.CTG (ENR+CD organoids [5]; dose 0.08 uM): 0.628 log2 fold change
Dose.FC.CTG (ENR+CD organoids [5]; dose 0.40 uM): 0.302 log2 fold change
Dose.FC.CTG (ENR+CD organoids [5]; dose 2.00 uM): −0.169 log2 fold change
Dose.FC.CTG (ENR+CD organoids [5]; dose 10.00 uM): −0.668 log2 fold change
Dose.FC.LYZ.S ([6]; dose 0.08 uM): 0.308 log2 fold change
Dose.FC.LYZ.S ([6]; dose 0.40 uM): 0.208 log2 fold change
Dose.FC.LYZ.S ([6]; dose 2.00 uM): −0.058 log2 fold change
Dose.FC.LYZ.S ([6]; dose 10.00 uM): −0.223 log2 fold change

Cc1[nH]c(/C=C2\C(=O)Nc3ccc(S(=O)(=O)Cc4c(Cl)cccc4Cl)cc32)c(C)c1C(=O)N1CCC[C@@H]1CN1CCCC1 [PHA-665752]
Dose.FC.LYZ.S ([1]; 0.10 uM): 0.133 log2 fold change
Z.LYZ.S ([1]; 0.10 uM): 1.019
repSSMD.LYZ.S ([1]; 0.10 uM): 1.586
Dose.FC.LYZ.S ([1]; 0.20 uM): −0.089 log2 fold change
Z.LYZ.S ([1]; 0.20 uM): −0.680
repSSMD.LYZ.S ([1]; 0.20 uM): −1.201
Dose.FC.LYZ.S ([1]; 0.40 uM): 0.076 log2 fold change
Z.LYZ.S ([1]; 0.40 uM): 0.585
repSSMD.LYZ.S ([1]; 0.40 uM): 0.906
Dose.FC.LYZ.S ([1]; 0.80 uM): 0.048 log2 fold change
Z.LYZ.S ([1]; 0.80 uM): 0.365
repSSMD.LYZ.S ([1]; 0.80 uM): 0.542
Dose.FC.CTG (ENR+CD organoids [2]; 0.10 uM): 0.100 log2 fold change
Z.CTG (ENR+CD organoids [2]; 0.10 uM): 0.898
repSSMD.CTG (ENR+CD organoids [2]; 0.10 uM): 0.755
Dose.FC.CTG (ENR+CD organoids [2]; 0.20 uM): −0.032 log2 fold change
Z.CTG (ENR+CD organoids [2]; 0.20 uM): −0.288
repSSMD.CTG (ENR+CD organoids [2]; 0.20 uM): −0.244
Dose.FC.CTG (ENR+CD organoids [2]; 0.40 uM): 0.303 log2 fold change
Z.CTG (ENR+CD organoids [2]; 0.40 uM): 2.735
repSSMD.CTG (ENR+CD organoids [2]; 0.40 uM): 1.415
Dose.FC.CTG (ENR+CD organoids [2]; 0.80 uM): 0.185 log2 fold change
Z.CTG (ENR+CD organoids [2]; 0.80 uM): 1.664
repSSMD.CTG (ENR+CD organoids [2]; 0.80 uM): 1.023
Z.LYZ.NS ([3]; dose 0.08 uM): 1.586
Z.LYZ.NS ([3]; dose 0.40 uM): 2.368
Z.LYZ.NS ([3]; dose 2.00 uM): 1.591
Z.LYZ.NS ([3]; dose 10.00 uM): −0.931
Dose.FC.LYZ.NS [3, 7]: 0.182 log2 fold change
Dose.FC.LYZ.NS [3, 8]: 0.272 log2 fold change
Dose.FC.LYZ.NS [3, 9]: 0.183 log2 fold change
Dose.FC.LYZ.NS [3, 10]: −0.107 log2 fold change
Dose.FC.LYZ.NS ([4]; 0.10 uM): 0.210 log2 fold change
Z.LYZ.NS ([4]; 0.10 uM): 1.675
repSSMD.LYZ.NS ([4]; 0.10 uM): 2.400
Dose.FC.LYZ.NS ([4]; 0.20 uM): −0.027 log2 fold change
Z.LYZ.NS ([4]; 0.20 uM): −0.219
repSSMD.LYZ.NS ([4]; 0.20 uM): −0.350
Dose.FC.LYZ.NS ([4]; 0.40 uM): 0.099 log2 fold change
Z.LYZ.NS ([4]; 0.40 uM): 0.789
repSSMD.LYZ.NS ([4]; 0.40 uM): 0.942
Dose.FC.LYZ.NS ([4]; 0.80 uM): 0.090 log2 fold change
Z.LYZ.NS ([4]; 0.80 uM): 0.722
repSSMD.LYZ.NS ([4]; 0.80 uM): 1.142
validated doses in secondary screen (SSMD above cutoff in both LYZ assays) ([4]; LYZ.NS and LYZ.S): multiple validated doses
Z.CTG (ENR+CD organoids [5]; dose 0.08 uM): 1.126
Z.CTG (ENR+CD organoids [5]; dose 0.40 uM): 1.482
Z.CTG (ENR+CD organoids [5]; dose 2.00 uM): 1.339
Z.CTG (ENR+CD organoids [5]; dose 10.00 uM): 0.057
Dose.FC.CTG (ENR+CD organoids [5]; [7]): 0.471 log2 fold change
Dose.FC.CTG (ENR+CD organoids [5]; [8]): 0.620 log2 fold change
Dose.FC.CTG (ENR+CD organoids [5]; [9]): 0.561 log2 fold change
Dose.FC.CTG (ENR+CD organoids [5]; [10]): 0.024 log2 fold change
Dose.FC.LYZ.S [6, 7]: 0.163 log2 fold change
Dose.FC.LYZ.S [6, 8]: 0.373 log2 fold change
Dose.FC.LYZ.S [6, 9]: 0.143 log2 fold change
Dose.FC.LYZ.S [6, 10]: −0.165 log2 fold change
